From ChEMBL document CHEMBL1667805, “Synthesis of new C5-(1-substituted-1,2,3-triazol-4 or 5-yl)-2'-deoxyuridines and their antiviral evaluation” (Eur J Med Chem, 2011)
The source made the active and inactive calls. The rule behind the calls is not given here.

Assays:
Human alphaherpesvirus 1 [1] = assay: microbe, parasite or virus in culture; conditions: Human alphaherpesvirus 1, KOS, HEL
Punta Toro virus = type: functional, organism-based; conditions: Vero
HeLa = assay: cells; conditions: Homo sapiens, 96 h
Human respirovirus 3 = type: functional, organism-based; conditions: Vero
L1210 = assay: cells; conditions: Mus musculus, L1210, 48 h
in vitro = conditions: human, HEL cells
Human alphaherpesvirus 3 [2] = assay: microbe, parasite or virus in culture; conditions: Human alphaherpesvirus 3, strain Oka vaccine, HEL
[3] = system: Human immunodeficiency virus 1; assay: Antiviral activity against HIV1 3B infected in human […] cells assessed as virus-induced CEM giant cell formation after 4 days; type: functional, organism-based
Influenza B virus = type: functional, organism-based; conditions: MDCK
Human alphaherpesvirus 3 [4] = assay: microbe, parasite or virus in culture; conditions: Human alphaherpesvirus 3, 07-1, HEL
Human betaherpesvirus 5 [5] = assay: microbe, parasite or virus in culture; conditions: Human betaherpesvirus 5, Davis, HEL
[6] = system: Human immunodeficiency virus 2; assay: Antiviral activity against HIV2 ROD infected in human […] cells assessed as virus-induced CEM giant cell formation after 4 days; type: functional, organism-based; conditions: ISOLATE ROD
[7] = system: Vesicular stomatitis virus; type: functional, organism-based; conditions: MDCK
[8] = system: Mammalian orthoreovirus 1; type: functional, organism-based; conditions: Vero
Human betaherpesvirus 5 [9] = assay: microbe, parasite or virus in culture; conditions: Human betaherpesvirus 5, AD169, HEL
Influenza A virus [10] = type: functional, organism-based; conditions: H3N2, MDCK
Human alphaherpesvirus 1 [11] = assay: microbe, parasite or virus in culture; conditions: Human alphaherpesvirus 1, KOS, HEL; remark: listed apart in the source
Vaccinia virus = assay: microbe, parasite or virus in culture; conditions: Orthopoxvirus vaccinia, HEL
Influenza A virus [12] = type: functional, organism-based; conditions: H1N1, MDCK
Sindbis virus = type: functional, organism-based; conditions: Vero
Coxsackievirus B4 = type: functional, organism-based; conditions: HeLa
[13] = system: Vesicular stomatitis virus; type: functional, organism-based; conditions: HeLa
Human alphaherpesvirus 2 = assay: microbe, parasite or virus in culture; conditions: Human alphaherpesvirus 2, strain G, HEL
CCRF-CEM = assay: cells; conditions: Homo sapiens, 72 h

SMILES | EC50 (Human alphaherpesvirus 1 [1]) [µM] | inhibition (Punta Toro virus) | IC50 (HeLa) [µM] | inhibition (Human respirovirus 3) | IC50 (L1210) [µM] | CC50 at 72 h (in vitro) [µM] | MCC at 72 h (in vitro) [µM] | EC50 (Human alphaherpesvirus 3 [2]) [µM] | inhibition [3] | inhibition (Influenza B virus) | EC50 (Human alphaherpesvirus 3 [4]) [µM] | EC50 (Human betaherpesvirus 5 [5]) [µM] | inhibition [6] | inhibition [7] | inhibition [8] | EC50 (Human betaherpesvirus 5 [9]) [µM] | inhibition (Influenza A virus [10]) | EC50 (Human alphaherpesvirus 1 [11]) [µM] | EC50 (Vaccinia virus) [µM] | inhibition (Influenza A virus [12]) | other results
O=c1[nH]c(=O)n([C@H]2C[C@H](O)[C@@H](CO)O2)cc1-c1cn(-c2ccc(OC(F)(F)F)cc2)nn1 | > 50 | inactive | 37 | inactive | 50 | 47 | > 220 | > 50 | inactive | inactive | > 50 | > 220 | inactive | inactive | inactive | > 220 | inactive | > 50 | > 50 | inactive | inhibition (Sindbis virus): inactive; inhibition (Coxsackievirus B4): inactive; inhibition [13]: inactive; EC50 (Human alphaherpesvirus 2): > 50 µM; IC50 (CCRF-CEM): 35 µM
O=c1[nH]c(=O)n([C@H]2C[C@H](O)[C@@H](CO)O2)cc1-c1cn(-c2ccc(Br)cc2)nn1 | 132 | inactive | 1.37 | inactive | 4.6 | 1 | ≥ 44 | 2.6 | inactive | inactive | 14 | 25 | inactive | inactive | inactive | 45 | inactive | 132 | 31 | inactive | inhibition (Sindbis virus): inactive; inhibition (Coxsackievirus B4): inactive; inhibition [13]: inactive; EC50 (Human alphaherpesvirus 2): ≥ 100 µM; IC50 (CCRF-CEM): 1.8 µM
